How the values were obtained:
Format in all cases: in vivo
[1] = tested on: Common Cutworm (Spodoptera litura); test: Comparative Test Example 1: insecticidal effect on common cutworm, treated synthetic diet; details: 192 h, synthetic diet treated with 0.5 ml, third-instar larvae, eight days after inoculation
Experimental: (§1) Insecticidal Effect on Common Cutworm (Spodoptera litura)
A synthetic diet packed in a plastic Petri dish was treated with 0.5 ml of a liquid chemical prepared by diluting a preparation containing compound 1-51 as an active ingredient to adjust the prescribed concentration, by adding the liquid chemical dropwise to the synthetic diet. The synthetic diet was inoculated with third-instar larvae of common cutworm, after which the dish was closed and then allowed to stand in a room thermostatted at 25° C. Eight days after the inoculation, the dead and alive were counted, and the mortality was calculated according to the following equation. The test was carried out with triplicate groups of 10 insects. [formula]
The compounds described in JP-A-2001-131141 were used as comparative compounds as follows: […]

[2] = tested on: Common Cutworm (Spodoptera litura); test: Comparative Example 2: insecticidal effect on common cutworm by soil treatment for cabbage; set-up: concentration or dose not given beside the values; details: granules in planting holes; leaf cut eleven days after transplanting; first-instar larvae; three days after inoculation
Experimental: Insecticidal Effect on Common Cutworm (Spodoptera litura) by Soil Treatment for Cabbage
At the time of trans-planting cabbage plants (cultivar: YR Seitoku), planting holes were treated with granules prepared from compound 1-51 according to Formulation Example. Eleven days after the transplanting, a leaf was cut off from the cabbage plant, placed in a plastic Petri dish, and then inoculated with 20 first-instar larvae of common cutworm. Thereafter, the dish was closed and then allowed to stand in a room thermostatted at 25° C. Three days after the inoculation, the dead and alive were counted and the mortality was calculated in the same manner as in Comparative Test Example 1.

[3] = tested on: Diamond Back Moth (Plutella xylostella); test: Test Example 1: insecticidal effect on diamond back moth, Chinese cabbage seedling with eggs immersed in liquid chemical; details: eggs on Chinese cabbage seedling immersed about 30 seconds, six days after immersion, 25° C.
Text: Insecticidal Effect on Diamond Back Moth (Plutella xylostella)
Adult diamond back moths were released and allowed to oviposit on a Chinese cabbage seedling. Two days after the release, the seedling having the eggs deposited thereon was immersed for about 30 seconds in a liquid chemical prepared by diluting a preparation containing each compound listed in Table 1 or 2 as an active ingredient to adjust the prescribed concentration. After air-dryness, it was allowed to stand in a room thermostatted at 25° C. Six days after the immersion, the hatched insects were counted. The mortality was calculated according to the following equation and the insecticidal effect was judged according to the criterion shown below. The test was carried out with triplicate groups of 10 insects. [formula]

[4] = tested on: Common Cutworm (Spodoptera litura); test: Test Example 2: insecticidal effect on common cutworm, cabbage leaf immersion; details: cabbage leaf immersed, second-instar larvae, eight days after inoculation, 25° C.
Text: as §1
A piece of cabbage leaf (cultivar; Shikidori) was immersed for about 30 seconds in a liquid chemical prepared by diluting a preparation containing each compound listed in Table 1 or 2 as an active ingredient to adjust the prescribed concentration. After air-dryness, it was placed in a plastic Petri dish with a diameter of 9 cm and inoculated with second-instar larvae of common cutworm, after which the dish was closed and then allowed to stand in a room thermostatted at 25° C. Eight days after the inoculation, the dead and alive were counted. The mortality was calculated according to the following equation and the insecticidal effect was judged according to the criterion shown in Test Example 1. The test was carried out with triplicate groups of 10 insects. [formula]

SMILES | mortality at 5 ppm [1] | mortality at 50 ppm [1] | mortality at 500 ppm [1] | Mortality, Highest leaf [2] | Mortality, Second highest leaf [2] | Mortality, Third highest leaf [2] | Test Example 1 insecticidal effect (mortality grade) ([3]; 5 ppm) | Test Example 1 insecticidal effect (mortality grade) ([3]; 50 ppm) | Test Example 2 insecticidal effect (mortality grade) ([4]; 5 ppm) | Test Example 2 insecticidal effect (mortality grade) ([4]; 50 ppm)
CSCC(C)(C)NC(=O)c1c(I)cccc1C(=O)Nc1ccc(OC(F)(F)F)cc1Cl [Compound A, N^1-[2-chloro-4-(trifluoromethoxy)phenyl]-N^2-(1,1-dimethyl-2-methylthioethyl)-3-iodophthalamide] | 5% | 100% | 100% | 0% | 95% | 100% |  |  |  | 
CC(C)(CS(C)(=O)=O)NC(=O)c1c(I)cccc1C(=O)Nc1ccc(OC(F)(F)F)cc1Cl [Compound B, N^1-[2-chloro-4-(trifluoromethoxy)phenyl]-3-iodo-N^2-(1,1-dimethyl-2-methylsulfonylethyl)phthalamide] | 0% | 100% | 100% | 0% | 50% | 100% |  |  |  | 
CSCC(C)(C)NC(=O)c1c(I)cccc1C(=O)Nc1ccc(OC(F)(F)C(F)OC(F)(F)C(F)(F)C(F)(F)F)cc1Cl (stereo not shown) [Compound 1-81] |  |  |  |  |  |  | A (Mortality 100%) | A (Mortality 100%) | A (Mortality 100%) | A (Mortality 100%)
CC(C)(CS(C)(=O)=O)NC(=O)c1c(I)cccc1C(=O)Nc1ccc(Oc2ncc(C(F)(F)F)cc2Cl)cc1Cl [Compound 1-97] |  |  |  |  |  |  | A (Mortality 100%) | A (Mortality 100%) | E (Mortality 49-0%) | A (Mortality 100%)
C[S+]([O-])CC(C)(C)NC(=O)c1c(I)cccc1C(=O)Nc1ccc(OC(F)(F)C(F)C(F)(F)F)cc1Cl (stereo not shown) [Compound 1-67] |  |  |  |  |  |  | A (Mortality 100%) | A (Mortality 100%) | E (Mortality 49-0%) | A (Mortality 100%)
CC(C)(CS(C)(=O)=O)NC(=O)c1c(I)cccc1C(=O)Nc1ccc(Oc2ncc(C(F)(F)F)cc2Cl)c(Cl)c1Cl [Compound 1-100] |  |  |  |  |  |  | A (Mortality 100%) | A (Mortality 100%) | E (Mortality 49-0%) | A (Mortality 100%)
CC(C)(CS(C)(=O)=O)NC(=O)c1c(I)cccc1C(=O)Nc1ccc(OC(F)F)c(Cl)c1Cl [Compound 1-45] |  |  |  |  |  |  | A (Mortality 100%) | A (Mortality 100%) | E (Mortality 49-0%) | A (Mortality 100%)
CSCC(C)(C)NC(=O)c1c(I)cccc1C(=O)Nc1ccc(OC(F)(F)C(F)C(F)(F)F)c(Cl)c1Cl (stereo not shown) [Compound 1-66, 3-iodo-N^1-[2,3-dichloro-4-(1,1,2,3,3,3-hexafluoropropoxy)phenyl]-N^2-[(1,1-dimethyl-2-methylthio)ethyl]phthalamide] |  |  |  |  |  |  | E (Mortality 49-0%) | A (Mortality 100%) | E (Mortality 49-0%) | A (Mortality 100%)
C[S+]([O-])CC(C)(C)NC(=O)c1c(I)cccc1C(=O)Nc1ccc(Oc2ncc(C(F)(F)F)cc2Cl)cc1Cl (stereo not shown) [Compound 1-96] |  |  |  |  |  |  | A (Mortality 100%) | A (Mortality 100%) | E (Mortality 49-0%) | A (Mortality 100%)
CSCC(C)(C)NC(=O)c1c(I)cccc1C(=O)Nc1ccc(Oc2c(Cl)cc(C(F)(F)F)c(F)c2Cl)cc1Cl [Compound 1-93] |  |  |  |  |  |  | A (Mortality 100%) | A (Mortality 100%) | E (Mortality 49-0%) | C (Mortality 89-80%)
CC(C)(CS(C)(=O)=O)NC(=O)c1c(I)cccc1C(=O)Nc1ccc(OC(F)(F)C(F)C(F)(F)F)c(Cl)c1Cl (stereo not shown) [Compound 1-71] |  |  |  |  |  |  | A (Mortality 100%) | A (Mortality 100%) | E (Mortality 49-0%) | A (Mortality 100%)
CSCC(C)(C)NC(=O)c1c(I)cccc1C(=O)Nc1ccc(OC(F)(F)Cl)cc1Cl [Compound 1-48] |  |  |  |  |  |  | A (Mortality 100%) | A (Mortality 100%) | A (Mortality 100%) | A (Mortality 100%)
CSCC(C)(C)NC(=O)c1c(I)cccc1C(=O)Nc1ccc(OC(C(F)(F)F)C(F)(F)F)cc1Cl [Compound 1-64] |  |  |  |  |  |  | A (Mortality 100%) | A (Mortality 100%) | A (Mortality 100%) | A (Mortality 100%)
C[S+]([O-])CC(C)(C)NC(=O)c1c(I)cccc1C(=O)Nc1ccc(C(F)(F)F)cc1Cl (stereo not shown) [Compound 1-21] |  |  |  |  |  |  | A (Mortality 100%) | A (Mortality 100%) | C (Mortality 89-80%) | A (Mortality 100%)
CSCC(C)(C)NC(=O)c1c(I)cccc1C(=O)Nc1ccc(S(=O)(=O)C(F)(F)F)cc1Cl [Compound 1-111] |  |  |  |  |  |  | A (Mortality 100%) | A (Mortality 100%) | E (Mortality 49-0%) | A (Mortality 100%)
